Consider 1 molecule from EP4785943A1, “SOLID DISPERSION, PHARMACEUTICAL COMPOSITION, AND PREPARATION METHOD AND USE THEREFOR” (4B Technologies (Beijing) Co., Limited, priority 2023, dated 2025).

The data set in a line: Solubility testing in FaSSIF, FeSSIF and SGF (37°C, HPLC of filtrate). Type of data set: physicochemical. The conditions noted are these: for pH after 2 h: pH of the 2-hour filtrate; for solubility at 0.5 h / solubility at 2 h: thermodynamic from solid, 37°C; for solubility at 0.5 h: read-out: Solubility (mg/mL) 0.5 h; for solubility at 2 h: read-out: Solubility (mg/mL) 2 h. Here is the method:
Preparation of FaSSIF stock solution with pH buffer: Approximately 621 mg of NaCl, approximately 345 mg of NaH2PO4, and approximately 41.9 mg of NaOH are weighed into a 100 mL volumetric flask, and dissolved in water to approximately 5 cm below the mark. After cooling and pH adjustment, the resulting mixture is diluted to volume with water, and mixed thoroughly with shaking.
FeSSIF stock solution: Approximately 866 mg of glacial acetic acid, approximately 406 mg of NaOH, and approximately 1184 mg of NaCl are weighed into a 100 mL volumetric flask, and dissolved in water to approximately 5 cm below the mark. After cooling and pH adjustment, the resulting mixture is diluted to volume with water, and mixed thoroughly with shaking.
SGF solution: Approximately 202 mg of NaCl and approximately 321 mg of pepsin are weighed into a 100 mL volumetric flask, followed by addition of 700 µL of HCl, and dissolved in water to approximately 5 cm below the mark. After cooling, the resulting mixture is diluted to volume with water, and mixed thoroughly with shaking.
FaSSIF solution: FaSSIF stock solution is transferred to a 100 mL volumetric flask, followed by addition of approximately 225 mg of FaSSIF powder, and dissolved in FaSSIF stock solution to approximately 5 cm below the mark. After cooling, the resulting mixture is diluted to volume with FaSSIF stock solution, mixed thoroughly with shaking, and allowed to stand for 2 hours before use.
FeSSIF solution: FeSSIF stock solution is transferred to a 100 mL volumetric flask, followed by addition of approximately 1122 mg of FeSSIF powder, and dissolved in FeSSIF stock solution to approximately 5 cm below the mark. After cooling, the resulting mixture is diluted to volume with FeSSIF stock solution, and mixed thoroughly with shaking.
Approximately 20 mg of sample is weighed into a 4 mL vial, followed by addition of 4 mL of different solvents (FaSSIF, FeSSIF, SGF). After the vial is equipped with a magnetic stir bar, the mixture is stirred at 37°C for 2 hours, during which samples are taken at 0.5 hours and 2 hours. After filtration, the sample concentration in the filtrate is determined by HPLC. The pH of the 2-hour filtrate and the crystal form of the remaining solid are also measured.

Each structure is given as a SMILES string. Values after ≈ are worked out from the molar mass of the structure shown. Where two headings read alike, the source gives them in different places.

With `COc1cc(Nc2ccc3ncc(N4CCOCC4)nc3c2C#N)ccc1OCc1ccc(C)nc1` [Compound 1, 6-((3-methoxy-4-((6-methylpyridin-3-yl)methoxy)phenyl)amino)-3-morpholinoquinoxaline-5-carbonitrile], where the note is “background statement”, the “solubility in aqueous media” value is recorded as “poorly soluble”. For the same molecule, the “pH after 2 h” value reads like this: (FaSSIF) 6.58; (FeSSIF) 5.02; (SGF) 1.28. For the same molecule, the solubility at 0.5 h is 0.699 mg/mL (≈ 1450 µM) (simulated gastric fluid, SGF); 0.00026 mg/mL (≈ 0.539 µM) (FaSSIF); 0.00313 mg/mL (≈ 6.49 µM) (FeSSIF). Moreover, the solubility at 2 h was 0.524 mg/mL (≈ 1090 µM) (simulated gastric fluid, SGF); 0.00026 mg/mL (≈ 0.539 µM) (FaSSIF); 0.00293 mg/mL (≈ 6.07 µM) (FeSSIF).
